Patent US20140017223A1, “Pharmaceutical Compositions Comprising A Pancreatic Enzyme Preparation With Viral Infectivity Reduced Below A Significant Level And Methods Of Preparing And Using The Same” (Aptalis Pharma Canada Inc., priority 2010, published 2014)
Several values for one entry are separate records, joined by “and”; a condition that tells them apart may be missing. Equal entries are not always repeated.

Tests used:
PPV [1] = test: Inactivation of PPV by BPL (30 min, 25° C.), BPL then inactivated with sodium thiosulfate (Example 9); type: cell-based, porcine parvovirus (PPV); settings: thiosulfate quench
Procedure: 4.5 g pancrelipase (PEP) powder was dissolved in 44 ml ice cold 100 mM Tris (pH=8.3) by frequently mixing a 50-ml plastic tube that was kept on ice most of the time except when shaking. The dissolved sample was spiked with 1 ml (2×0.5 ml) PPV stock (prepared at the Institut National de la Recherche Scientifique, Québec, Canada using standard protocols (Arella et al., Physicichemical properties, production, and purification of parvoviruses. 1990, In Tijssen, P. (ed.), CRC handbook of parvoviruses. Boca Raton, Fla.: CRC Press, 11-30)) 10^7 FFID50/ml; see Example 8 and Table 8) and was mixed for another 10 minutes.
Three aliquots of the dissolved pancrelipase were transferred into tubes (A-C) and kept on ice while (A) no BPL—the control), (B) (0.4 vol % BPL), or (C) (0.8 vol % BPL) was added to them. After a brief mixing by a vortex machine, the tubes were incubated for 30 minutes at 25° C. At the end of the incubation, the tubes were transferred on to ice and immediately four aliquots were transferred from each experimental condition into new tubes (a-d). These tubes were placed into the mixture of acetone/dry ice for fast freezing. Later, the samples were stored at −80° C.
From the remaining solutions, aliquots from each experiment (using triplicates) were diluted 100 times in cell culture medium containing sodium thiosulfate and supplemented with traces of chloroform. Samples were briefly mixed and kept at 4° C. for at least 6 hours before further dilution for the FFID50 infectivity determination. See Example 9.
The experiment above was repeated two more times (altogether: experiments 1-3).
Table 9 presents the result of the inactivation of PPV by BPL for 30 min at 25° C. and subsequent inactivation of the BPL by incubating the BPL-containing PEP solutions with sodium thiosulfate for at least 6 hours at 4° C. As discussed above, three independent experiments with BPL inactivation after PPV spiking were followed by inactivation of BPL by sodium thiosulfate (3 parallels for each experiment).

amylase = test: Amylase activity of pancrelipase after BPL treatment, freezing and lyophilization (USP 31 method); type: biochemical; settings: for Loss of Amylase Activity: pancrelipase, freezing, lyophilization, precision 5-10%
Procedure: (§1) Enzymatic activity for the enzymes of a PEP (e.g., proteases, lipases, and amylases) can be determined, for example, by using the United States Pharmacopeia (USP) monographed methods (The United States Pharmacopeia and the National Formulary (USP 31/NF 26). 2008. Rockville (MD): United States Pharmacopeial Convention, Inc.).
(§2) The samples c-d from all the experiments were tested for lipase, protease, and amylase enzymatic activity using USP 31 monographed methods. See Example 11 and Table 11.
(§3) Table 11 presents the lipase, protease, and amylase activity for aliquots of the pancrelipase after BPL treatment for 30 min at 25° C. followed by freezing and lyophilization (same treatment as for samples in Example 10).

PPV [2] = test: Inactivation of spiked PPV in PEP by BPL, PPV titered by chloroform/PEG method (Example 3); type: cell-based, porcine parvovirus (PPV)
Source text: U.S. Patent Publication No. 2009/0226414, incorporated by reference herein, provides a reproducible and efficient method for detecting an infectious non-enveloped virus, such as PPV, in an enzyme preparation (e.g., a pancreatic enzyme preparation) by treating the preparation prior to determining its viral infectivity. This method preserves the infectious non-enveloped virus while substantially eliminating the toxic enzyme materials from the PEP samples.
The steps of this method include:
(a) extracting a sample of the preparation at least two times with chloroform to produce a clarified sample with an upper phase and a lower phase;
(b) precipitating an aliquot of the upper phase from step (a) with polyethylene glycol (PEG);
(c) suspending the product from step (b) in a buffer;
(d) precipitating the product from step (c) with PEG;
(e) suspending the product from step (d) in a solution;
(f) removing excess PEG and fine particles from product (e) by chloroform, this allows (i) in step (e) the suspending in a 10-times smaller volume to increase the overall sensitivity up to 10-fold; and (ii) removal of the remaining interfering materials from the least diluted steps of the most toxic samples; and
(g) detecting the presence of or measuring the amount of infectious virus in the solution.
Pancrelipase powders from 2 different lots were each dissolved in 100 mM Tris, pH=8.3, at a concentration of 100 mg/ml. Two ml non-purified PPV viral stock (prepared using standard protocols (Arella et al., Physicichemical properties, production, and purification of parvoviruses. 1990, In Tijssen, P. (ed.), CRC handbook of parvoviruses. Boca Raton, Fla.: CRC Press, 11-30)) were added to 38 ml of the pancrelipase solution. The virus was mixed with the PEP using slow shaking at room temperature for one day. Aliquots were taken from the PPV-spiked pancrelipase stocks and each was incubated with different concentrations of BPL (available from Sigma-Aldrich, St. Louis, Mo.) (except the control) for 48 hours at room temperature (20° C.). […] Determination of the FFID50 was performed using the fluorescence assay as described in the PPV FFID-infectivity assay of U.S. Patent Publication No. 2009/0226414.
The experiment described in Example 1 was repeated except PEG-purified PPV was used for the infectivity assay as described in U.S. Patent Publication No. 2009/0226414.

protease = test: Protease activity of pancrelipase after BPL treatment, freezing and lyophilization (USP 31 method); type: biochemical; settings: for Loss of Protease Activity: pancrelipase, freezing, lyophilization, precision 5-10%
Procedure: as §1, §2, §3

[3] = lyophilized samples treated with 0.4% BPL and 0.8% BPL

O=C1CCO1 [BPL, Beta-propiolactone]
Mean Infectivity ± SD (PPV [1]; 0.4% BPL, 30 min 25° C.): 2.63 ± 6.86 × 10^4 FFID50/g | PPV Titer reduction (PPV [1]; 0.4% BPL, 30 min 25° C.): 0.65 × 10^2 FFID50/g | Average Results per Sample (PPV [1]; 0.4% BPL, 30 min 25° C., experiments B1-B3): 2.32 × 10^4 FFID50/g and 2.15 × 10^4 FFID50/g and 3.42 × 10^4 FFID50/g | Results (PPV infectivity, single determinations) (PPV [1]; 0.4% BPL, 30 min 25° C., experiments B1-B3, 3 parallels each): 2.50 × 10^4 FFID50/g and 1.98 × 10^4 FFID50/g and 3.14 × 10^4 FFID50/g and 3.96 × 10^4 FFID50/g | Reduction of virus infectivity (PPV [1]; 0.4 vol % BPL, room temperature, 30 minutes): more than 60 times | Mean Infectivity ± SD (PPV [1]; 0.8% BPL, 30 min 25° C.): 5.25 ± 5.25 × 10^3 FFID50/g | PPV Titer reduction (PPV [1]; 0.8% BPL, 30 min 25° C.): 0.31 × 10^4 FFID50/g | Inactivation of PPV (PPV [1]; 0.8% BPL, room temperature, 30 minutes): three magnitudes of order | Amylase activity maintained (amylase; [3]): maintained the majority | Loss of Amylase Activity (amylase; 0.4% BPL 30 min 25° C.): 11.40% | Loss of Amylase Activity (amylase; 0.8% BPL 30 min 25° C.): 28.22% | PPV Titer reduction (PPV [2]; PEP #1, 0.04% (v/v) BPL): 10 FFID50/g | PPV Titer reduction (PPV [2]; PEP #1, 0.10% (v/v) BPL): 10 FFID50/g | PPV Titer reduction (PPV [2]; PEP #1, 0.25% (v/v) BPL): 10^5 FFID50/g | PPV Titer reduction (PPV [2]; PEP #2, 0.04% (v/v) BPL): 10 FFID50/g | PPV Titer reduction (PPV [2]; PEP #2, 0.10% (v/v) BPL): 10^2 FFID50/g | PPV Titer reduction (PPV [2]; PEP #2, 0.25% (v/v) BPL): 10^5 FFID50/g | PPV Titer reduction (PPV [2]; PEP #3, 0.04% (v/v) BPL): 10 FFID50/g | PPV Titer reduction (PPV [2]; PEP #3, 0.10% (v/v) BPL): 10^2 FFID50/g | PPV Titer reduction (PPV [2]; PEP #3, 0.25% (v/v) BPL): 10^5 FFID50/g | PPV Titer reduction (PPV [2]; PEP #4, 0.04% (v/v) BPL): 10 FFID50/g | PPV Titer reduction (PPV [2]; PEP #4, 0.10% (v/v) BPL): 10^2 FFID50/g | PPV Titer reduction (PPV [2]; PEP #4, 0.25% (v/v) BPL): 10^4 FFID50/g | Protease activity maintained (protease; [3]): maintained the majority | Loss of Protease Activity (protease; 0.4% BPL 30 min 25° C.): 0% | Loss of Protease Activity (protease; 0.8% BPL 30 min 25° C.): 0%
